pIC50: −log10 of the molar value.
Key:
[1] = test system: HCT116 (human colon carcinoma) cells; test: HCT116 cytotoxicity assay (CellTiter-Glo); format: cell-based; conditions: HCT-116, 72 h, cytotoxicity, three days culture, read-out: HCT116 IC50
p-H3 in HCT116 cells = test: Histone phosphorylation (p-H3) assay; format: cell-based; conditions: Homo sapiens, HCT-116; HCT116 cells, 4 hr incubation; read-out: p-H3 IC50
Outline: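 HCT116 cells (2.5×10^4/well, attached overnight) treated 4 h with 8-point 3-fold compound dilutions at 0.5% DMSO. Lysates dot-blotted onto nitrocellulose and probed for p-H3 with β-actin on the same membrane, fluorescent secondary antibodies, Odyssey scan; duplicate wells.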

Aurora B kinase = molecular target: T1, Aurora B kinase (Homo sapiens, UniProt Q96GD4); test: Aurora B kinase assay (IMAP fluorescence polarization); format: biochemical; conditions: 10 μM ATP; rounded to 1 significant figure; read-out: Aur-B IC50
T1 construct: purchased BPS Bioscience
Outline: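 Reaction started with 100 nM fluorescein-labelled PKAtide and 10 μM ATP, run 45 min at room temperature, then stopped with IMAP binding reagent (1:400). After 30 min shaking at room temperature, fluorescence polarization read; run in duplicate with solvent control.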

[2] = test system: HL60 (human promyelocytic leukemia) cells; test: HL60 cytotoxicity assay (CellTiter-Glo); format: cell-based; conditions: HL-60, 72 h, cytotoxicity, three days culture, read-out: HL60 IC50
From the text: (§1) The cell lines HL60 (human promyelocytic leukemia) and HCT116 (human colon carcinoma) were obtained from the American Type Culture Collection, Manassas, Va., U.S.A., and HUVEC-2 (human umbilical vein endothelial cells) from BD Biosciences, Bedford, Mass., U.S.A. Aurora A kinase was obtained from Upstate Biotech, Billerica, Mass., U.S.A.; Aurora B kinase from BPS Bioscience, San Diego, Calif., U.S.A.; and VEGFR2 kinase from Cell Signaling Technology, Danvers, Mass., U.S.A. The IMAP FP Screening Express kit was obtained from Molecular Devices, Sunnyvale, Calif., U.S.A.; the CellTiter-Glo assay kit from Promega Corporation, Madison, Wis., U.S.A.; and the Cellular DNA Cytometric Analysis Reagent Kit and BrdU labeling and detection kit from Roche Diagnostics Corporation, Indianapolis, Ind., U.S.A. All products were used in accordance with manufacturer's directions. Kinase inhibition assays and the histone phosphorylation (p-H3) assay were conducted in duplicate, and the cytotoxicity and HUVEC proliferation assays were conducted in triplicate, in each case with solvent control.
Log-phase cells were trypsinized, collected by centrifugation, and resuspended in a small volume of fresh medium, and the density of viable cells was determined following Trypan Blue staining. Cells were diluted in fresh media (1×10^4 cells/mL for HL60 and 4×10^4 cells/mL for HCT116 cells), the test compounds (concentrations between 0.1 μM and 200 μM, dissolved in DMSO, 50 μL) added immediately after dilution to achieve a final DMSO concentration of 0.5%, then the suspensions added at 150 μL/well to 96-well plates, and incubated overnight to allow attachment in the case of adherent cells. The cells were cultured for three days (about three doubling times). The cells were then collected by centrifugation, and 100 μL of the culture supernatant was replaced by the CellTiter-Glo reagent. After incubation for 15 minutes at room temperature, the plate was read with a luminometer.

VEGFR2 kinase = molecular target: T2, VEGFR2 kinase (Homo sapiens, UniProt P35968); test: VEGFR2 kinase assay; format: biochemical; conditions: 6 μM ATP, 1 mM MnCl2; rounded to 1 significant figure
T2 construct: purchased Cell Signaling Technology
Outline: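 VEGFR2 phosphorylates CSKtide with 6 μM ATP and 1 mM MnCl2 for 1 hr, otherwise following the Aurora A kinase protocol. Detection by IMAP fluorescence polarization, binding reagent diluted 1:1200 in 1:1 binding buffer A/B. Run in duplicate with solvent control.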

Aurora A kinase = molecular target: T3, Aurora A kinase (Homo sapiens, UniProt O14965); test: Aurora A kinase assay (IMAP fluorescence polarization); format: biochemical; conditions: 10 μM ATP; rounded to 1 significant figure; read-out: Aur-A IC50
T3 construct: purchased Upstate Biotech
T3 sequence (O14965 1-403): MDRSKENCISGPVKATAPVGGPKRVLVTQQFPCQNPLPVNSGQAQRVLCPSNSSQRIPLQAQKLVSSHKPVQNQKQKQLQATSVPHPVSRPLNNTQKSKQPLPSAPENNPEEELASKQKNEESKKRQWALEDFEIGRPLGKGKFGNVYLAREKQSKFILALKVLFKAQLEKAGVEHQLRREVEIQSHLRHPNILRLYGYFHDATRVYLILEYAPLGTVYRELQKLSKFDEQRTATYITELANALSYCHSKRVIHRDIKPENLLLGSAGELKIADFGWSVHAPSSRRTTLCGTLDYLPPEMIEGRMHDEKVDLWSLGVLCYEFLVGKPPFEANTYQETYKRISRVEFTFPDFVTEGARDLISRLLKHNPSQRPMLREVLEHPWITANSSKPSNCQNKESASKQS
Outline: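 Compounds (eight 3-fold dilutions, 2.5% DMSO final) were preincubated 5 min at room temperature with Aurora A kinase in buffer with 1 mM DTT. Reaction with 100 nM fluorescein-PKAtide and 10 μM ATP ran 45 min at room temperature, then was stopped with IMAP binding reagent; fluorescence polarization was read after 30 min.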

[3] = test system: HUVEC-2 (human umbilical vein endothelial cells); test: HUVEC VEGF-dependent proliferation assay (BrdU); format: cell-based; conditions: VEGF (25 ng/mL)-dependent proliferation, read-out: HUVEC IC50
From the text: as §1
HUVEC-2 cells were seeded at 10^4 cells/well in a 96-well plate coated with 0.1% gelatin in complete medium. […] The compounds were serially diluted in DMSO, and added to the cells at 0.5% DMSO final concentration. After 2 hr, VEGF (25 ng/mL) was added; and after a further day, 5-bromo-2-deoxyuridine (BrdU, 10 μM) was added to label proliferating cells, and the cells incubated for another day. The plates were then processed using the Roche BrdU labeling and detection kit, and the VEGF-dependent antiproliferative activity of the compounds determined.

T1 sequence (Q96GD4 whole entry): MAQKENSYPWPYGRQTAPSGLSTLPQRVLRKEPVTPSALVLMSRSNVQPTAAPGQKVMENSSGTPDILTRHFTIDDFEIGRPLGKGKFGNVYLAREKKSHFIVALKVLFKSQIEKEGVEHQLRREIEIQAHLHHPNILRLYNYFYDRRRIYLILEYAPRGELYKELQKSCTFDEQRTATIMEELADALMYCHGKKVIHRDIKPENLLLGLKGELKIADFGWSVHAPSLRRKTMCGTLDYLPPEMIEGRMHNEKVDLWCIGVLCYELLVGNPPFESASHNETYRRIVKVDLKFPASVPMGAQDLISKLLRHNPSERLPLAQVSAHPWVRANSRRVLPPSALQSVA
T2 sequence (P35968 20-1356): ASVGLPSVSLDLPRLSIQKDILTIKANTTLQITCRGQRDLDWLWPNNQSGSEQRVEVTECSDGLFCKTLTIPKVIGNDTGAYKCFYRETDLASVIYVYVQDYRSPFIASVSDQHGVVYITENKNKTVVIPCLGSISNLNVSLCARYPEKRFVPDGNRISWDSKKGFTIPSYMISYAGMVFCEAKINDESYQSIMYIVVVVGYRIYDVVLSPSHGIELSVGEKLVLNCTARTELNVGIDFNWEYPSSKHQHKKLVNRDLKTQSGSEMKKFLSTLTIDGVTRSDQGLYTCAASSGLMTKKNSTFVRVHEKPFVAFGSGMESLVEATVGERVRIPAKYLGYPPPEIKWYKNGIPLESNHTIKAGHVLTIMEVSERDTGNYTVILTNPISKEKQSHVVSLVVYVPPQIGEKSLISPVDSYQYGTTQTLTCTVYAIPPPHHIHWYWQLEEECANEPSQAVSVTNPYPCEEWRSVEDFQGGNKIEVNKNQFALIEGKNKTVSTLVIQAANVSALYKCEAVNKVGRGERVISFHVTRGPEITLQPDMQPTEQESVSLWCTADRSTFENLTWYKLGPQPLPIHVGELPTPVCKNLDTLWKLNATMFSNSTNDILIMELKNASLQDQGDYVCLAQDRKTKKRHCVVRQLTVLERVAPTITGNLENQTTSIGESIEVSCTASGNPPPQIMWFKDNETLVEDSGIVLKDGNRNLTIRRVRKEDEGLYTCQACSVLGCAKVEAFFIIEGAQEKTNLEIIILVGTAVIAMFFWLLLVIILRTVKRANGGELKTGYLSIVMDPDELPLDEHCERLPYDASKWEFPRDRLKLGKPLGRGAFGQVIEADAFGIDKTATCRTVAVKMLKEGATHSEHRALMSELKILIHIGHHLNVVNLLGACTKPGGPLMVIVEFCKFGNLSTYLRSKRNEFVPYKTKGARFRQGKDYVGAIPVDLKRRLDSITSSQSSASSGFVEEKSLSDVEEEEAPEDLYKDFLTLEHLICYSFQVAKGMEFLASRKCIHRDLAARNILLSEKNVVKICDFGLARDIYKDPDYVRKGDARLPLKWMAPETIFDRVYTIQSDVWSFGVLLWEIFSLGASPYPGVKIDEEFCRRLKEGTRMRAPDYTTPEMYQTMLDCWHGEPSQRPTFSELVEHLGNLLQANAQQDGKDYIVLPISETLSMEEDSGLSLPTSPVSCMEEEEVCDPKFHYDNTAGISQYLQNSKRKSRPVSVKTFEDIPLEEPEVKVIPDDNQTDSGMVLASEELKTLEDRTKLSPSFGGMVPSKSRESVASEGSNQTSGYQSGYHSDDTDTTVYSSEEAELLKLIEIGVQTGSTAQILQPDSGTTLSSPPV

| pIC50 (p-H3 in HCT116 cells) | pIC50 (Aurora B kinase) | pIC50 (VEGFR2 kinase) | pIC50 (Aurora A kinase) | SMILES | pIC50 [1] | pIC50 [2] | pIC50 [3] |
| --- | --- | --- | --- | --- | --- | --- | --- |
| 5.52 | 8.10 | 7.70 | 7.70 | NC(=O)C(=C1Nc2ccccc2S1)c1ncc(C(=O)O)c(C(F)(F)F)n1 (single isomer, unassigned) [Compound 5A, 2-[benzothiazol-2(3H)-ylidene]-2-(5-carboxy-4-trifluoromethylpyrimidin-2-yl)acetamide] | 5.00 | < 5.00 | – |
| < 5.30 | 7.70 | 7.52 | 8.15 | CC(C)(C)c1cc(C(F)(F)F)nc(C(C(N)=O)=C2Nc3ccccc3S2)n1 (single isomer, unassigned) [Compound 7A, 2-[benzothiazol-2(3H)-ylidene]-2-[4-tert-butyl-6-(trifluoromethyl)pyrimidin-2-yl]acetamide] | 5.22 | 7.10 | – |
| 6.40 | 8.00 | 7.40 | 8.00 | NC(=O)C(=C1Nc2ccc(N)cc2S1)c1nccc(C(F)(F)F)n1 (single isomer, unassigned) [Compound 32A, 2-[6-aminobenzothiazol-2(3H)-ylidene]-2-(4-trifluoromethylpyrimidin-2-yl)acetamide] | 5.30 | 5.52 | – |
| 7.00 | 8.22 | – | 8.30 | Cc1cc(C(F)(F)F)nc(C(C(N)=O)=C2Nc3ccc(NC(=O)[C@@H]4CCCN4C)cc3N2)n1 (single isomer, unassigned) [Compound 144A] | 6.40 | 6.30 | – |
| 5.70 | 8.00 | 6.70 | 7.70 | COc1cc(C(F)(F)F)nc(/C(C(N)=O)=C2/Nc3ccccc3S2)n1 [Compound 6A] | 5.40 | 5.70 | – |
| 6.00 | 8.10 | 7.22 | 8.00 | Cc1cc(C(F)(F)F)nc(/C(C(N)=O)=C2/Nc3ccccc3S2)n1 [Compound 8A] | 5.70 | 6.70 | – |
| < 5.30 | 8.15 | 7.22 | 8.00 | NC(=O)/C(=C1\Nc2ccccc2S1)c1nc(C(F)(F)F)cc(C(F)(F)F)n1 [Compound 9A] | < 4.70 | < 4.70 | – |
| 5.30 | 8.00 | 7.40 | 8.00 | NC(=O)/C(=C1\Nc2ccccc2S1)c1nc(-c2cccnc2)cc(C(F)(F)F)n1 [Compound 10A] | 6.00 | 5.70 | – |
| < 5.30 | 8.00 | – | 7.40 | NC(=O)/C(=C1\Nc2ccccc2S1)c1nc(-c2ccccn2)cc(C(F)(F)F)n1 [Compound 11A] | 5.40 | 5.52 | – |
| 7.00 | 8.22 | 7.40 | 8.15 | NC(=O)C(=C1Nc2ccccc2N1)c1nc(N)cc(C(F)(F)F)n1 [Compound 12A] | 6.40 | 6.70 | – |
| 6.10 | 8.52 | – | 8.00 | NC(=O)/C(=C1\Nc2ccccc2S1)c1nc(N)cc(C(F)(F)F)n1 [Compound 13A] | 6.15 | 6.00 | – |
| 6.22 | 7.52 | 9.00 | 6.52 | COc1ccnc(C(C(N)=O)=C2Nc3ccccc3N2)n1 [Compound 17A] | 5.30 | 5.30 | – |
| < 5.30 | 7.70 | 6.70 | 7.05 | NC(=O)/C(=C1\Nc2ccccc2S1)c1nccc(-c2ccccc2)n1 [Compound 20A] | 5.10 | 6.22 | – |
| 7.00 | 8.05 | 8.52 | 8.40 | CCN(CCO)C(=O)c1ccc2c(c1)S/C(=C(/C(N)=O)c1nccc(C(F)(F)F)n1)N2 [Compound 31A] | 6.70 | 6.00 | – |
| 6.30 | 8.00 | 8.05 | 8.70 | NC(=O)/C(=C1\Nc2ccc(NC(=O)C3CC3)cc2N1)c1nccc(C(F)(F)F)n1 [Compound 33A] | 6.52 | 6.52 | – |
| 6.40 | 8.22 | 8.00 | 8.30 | NC(=O)/C(=C1\Nc2ccc(NC(=O)C3(N)CC3)cc2N1)c1nccc(C(F)(F)F)n1 [Compound 34A] | 6.22 | 6.70 | – |
| 7.00 | 8.30 | – | 8.52 | CCN(CCCn1ccnc1)C(=O)c1ccc2c(c1)S/C(=C(/C(N)=O)c1nccc(C(F)(F)F)n1)N2 [Compound 49A] | 6.40 | 6.00 | – |
| 7.00 | 8.15 | – | 7.70 | Cn1ccnc1CCc1ccc2c(c1)S/C(=C(/C(N)=O)c1nccc(C(F)(F)F)n1)N2 [Compound 97A] | 6.22 | 6.00 | – |
| 5.70 | 7.70 | 7.00 | 7.22 | NC(=O)C(=C1Nc2ccccc2N1)c1ncc(C(=O)NCCCN2CCOCC2)c(C(F)(F)F)n1 [Compound 132A] | 6.00 | – | 6.22 |
| 6.52 | 8.00 | 7.22 | 7.40 | Cc1cc2c(cc1C)NC(=C(C(N)=O)c1ncc(C(=O)NCCCN3CCOCC3)c(C(F)(F)F)n1)N2 [Compound 133A] | 6.10 | – | 6.70 |
| 6.40 | 8.00 | 7.10 | 7.30 | NC(=O)/C(=C1\Nc2ccccc2S1)c1ncc(C(=O)NCCN2CCOCC2)c(C(F)(F)F)n1 [Compound 134A] | 5.40 | – | 6.22 |
| 6.30 | 7.70 | 7.00 | 7.52 | NC(=O)C(=C1Nc2ccccc2N1)c1ncc(C(=O)NCCN2CCOCC2)c(C(F)(F)F)n1 [Compound 135A] | 5.40 | – | 6.22 |
| 6.70 | 8.30 | – | 7.70 | CCN(C(=O)CN1CCCCC1)c1ccc2c(c1)N/C(=C(/C(N)=O)c1nccc(C(F)(F)F)n1)N2 [Compound 146A] | 6.40 | 6.10 | – |
